Data as given in US20250090865A1, “LESIONAL DOSIMETRY FOR TARGETED RADIOTHERAPY OF CANCER” (Memorial Sloan-Kettering Cancer Center, priority 2021, published 2025).
Where two headings read alike, the source gives them in different places.

Tests used:
[1] = tested on: individual lesions of metastatic thyroid cancer; test: ^124I PET/CT imaging of lesion radioiodine uptake; type: in vivo, human; details: 48 h after oral ^124I
Source text: Population. The present study includes consecutive 21 patients studied under two different RB-approved protocols who underwent imaging. Patients who were considered candidates for RAI treatment of DTC were enrolled. All patients had histologically confirmed, metastatic thyroid cancer.
Dosimetry and estimation of average lesion uptake. […] (FIG. 9).

[2] = median of 21 patients
Protocol: Maximum Tolerated Activity (MTA).
To perform these studies, serial blood samples and total body measurements were conducted to determine β- and photon radiation dose contributions to blood (a proxy for the dose-limiting bone marrow) from a pre-therapy tracer administration of either ^124I or ^131I.

[3] = tested on: metastatic thyroid cancer; details: patients with any lesion with predicted dose >2000 cGy
Source text: Prediction of activity to deliver 2000 cGy. An operational definition in the methods disclosed herein is that a patient with any lesion with a predicted dose of >2000 cGy would likely respond to treatment. […] A total of 208 lesions are included in the analysis. The prediction is limited for lesions with an SUV >1, as no treatment is planned for lesions with no uptake. Lesions that received no treatment (n=39) were included in the analysis, as prediction is still feasible. […] In (SUV_48_)___.

[4] = tested on: individual lesions of metastatic thyroid cancer
Protocol: Dosimetry and estimation of average lesion uptake. A workflow was established for four-time point measurement of individual lesion radioiodine kinetics to generate area under the curve (AUC) estimation for accurate determination of the radiation dose in Gray (Gy) to individual lesions in patients undergoing RAI therapy for DTC. Positron emission tomography (PET/CT) imaging was performed after oral administration of 222 MBq (6.0 mCi) of ^124I—NaI (3D Imaging, Waco, TX). Whole-body imaging was performed at 4, 24, 48, and 96 hours after oral administration of the radioactivity (FIG. 4). Regions of interest were obtained over all visible lesions >0.5 cm within the body and multiple parameters were obtained for later analysis. The following parameters were captured in a database for each patient and each lesion: size in three dimensions (cm); standardized uptake value (SUV), maximum and average; lean body weight; and activity concentration in microcurie/gram. (FIG. 9). For these patients, the best clearance fitting curve was estimated using a dual exponential equation model comprising lesion uptake and clearance. Prior to integration, clearance fitting was adjusted to replace the decay constant of ^124I with ^131I, the therapy isotope of interest, and then integrated to obtain the AUC. This AUC was multiplied by the equilibrium dose constant for the non-penetrating P-emissions of ^131I, yielding the lesion-absorbed dose in Gy.
Range of ^131I activity to treat a chosen efficacy rate for RAI in mDTC patients. A multi-disciplinary team of nuclear medicine specialists, endocrinologists, medical oncologists, and medical physicists met weekly to make treatment decisions based on the PET data generated, including data from the methods disclosed herein.
(§1) The target radiation dose of 2000 cGy was chosen because doses above this level are often used as the threshold for patients to receive further radioiodine treatment. Based on the PI now available for the AUC, a simple calculation of the relationship between ^124I and ^131I uptake can yield a PI for the dose [dlow−dhigh]. […] Thus, the higher boundary (dhigh) corresponds to the activity to treat 97.5% of the lesions with the given uptake. By varying this boundary, it is possible to select an activity that will target 95%, 90%, or fewer of the lesions.
The full parameter data set consists of: anatomical descriptor, mean size (cm), lesion dose per projected unit millicurie of administered ^131I activity with and without partial volume correction (5), half-life based on a linear slop between day 3 and 5 as well as based on exponential curve fitting, area under the curve based on an integrated curve fit, estimated activity per gram at 48 and 72 hours post-administration, SUV and SUL (based on lean body mass) at 24, 48, and 72 hours post-administration, the administered activity to deliver 2,000 cGy, the radiation dose estimate resulting from the actual therapeutic amount administered to the patient, and the maximum projected dose that could have been achieved had the maximum tolerated activity been administered. This dataset was used as the input to derive a statistical model to predict the radiation dose to lesions.

[5] = tested on: individual lesions of metastatic thyroid cancer; remark: listed apart in the source
Source text: Predicting AUC based on a single time point. One goal of this study was to use a single time point to predict the overall area under the radioiodine lesion activity retention curve to estimate the radiation-absorbed dose to lesions without the need for costly additional PET/CT imaging to fully characterize the kinetic behavior. […] For this estimation, the unit is the lesion, and a generalized estimating equation approach is used to estimate the parameters (intercept, slope, and robust variance matrix) accounting for the correlation between lesions in the same patient. Log-transformed values of the uptake and doses are used to ensure the data are normally distributed.
Second, using the estimations for R and the covariance matrix, a prediction interval (PI) is calculated. A PI differs from a confidence interval, as it aims to predict with 95% confidence where future measurements will fall. In our case, if we observed the same value of SUV at 48 h for 100 new lesions, the PI is the range in which 95 of those lesions' AUCs will be found. As difficulties arose when analytically constructing the PI, simulated prediction was used to calculate PIs following the steps detailed in Gelman and Hill, Data Analysis Using Regression and Multilevel/Hierarchical Models (1st Edition, 2007) and summarized in Appendix A.
To validate the accuracy of the prediction, a leave-one-patient-out cross-validation approach was used. For each patient i (i=1, . . . , n), the linear regression parameters are re-estimated using n−1 patients (excluding i), and PIs are calculated for each lesion in patient i based on their measured predictor values.
For those lesions, the actual observed AUC is then compared to the PI. When using 95% PI, it is expected that 95% of the observed values will fall into the corresponding PIs; i.e., 5% will be outside the prediction. In addition, for each left-out patient, an error of prediction is calculated corresponding to the squared difference between the predicted and true AUC values for each lesion. This squared error is average over all the lesions of all the patients to obtain a cross-validated error.
as §1

## [124I-].[Na+] [^124I, ^124I—NaI]
[1]; patient 1, 13 lesions
  SUV(48 h): 8.03
[1]; patient 2, 18 lesions
  SUV(48 h): 80.1
[1]; patient 3, 14 lesions
  SUV(48 h): 3.25
[1]; patient 4, 12 lesions
  SUV(48 h): 7.4
[1]; patient 5, 10 lesions
  SUV(48 h): 1.85
[1]; patient 6, 16 lesions
  SUV(48 h): 27.8
[1]; patient 7, 23 lesions
  SUV(48 h): 35
[1]; patient 8, 6 lesions
  SUV(48 h): 1.73
[1]; patient 9, 8 lesions
  SUV(48 h): 4.35
[1]; patient 10, 4 lesions
  SUV(48 h): 26.2
[1]; patient 11, 11 lesions
  SUV(48 h): 11.30
[1]; patient 12, 3 lesions
  SUV(48 h): 0.7
[1]; patient 13, 13 lesions
  SUV(48 h): 1.30
[1]; patient 14, 5 lesions
  SUV(48 h): 0.90
[1]; patient 15, 17 lesions
  SUV(48 h): 385.3
[1]; patient 16, 6 lesions
  SUV(48 h): 8.30
[1]; patient 17, 6 lesions
  SUV(48 h): 0.80
[1]; patient 18, 12 lesions
  SUV(48 h): 25.1
[1]; patient 19, 17 lesions
  SUV(48 h): 204.6
[1]; patient 20, 13 lesions
  SUV(48 h): 2.30
[1]; patient 21, 10 lesions
  SUV(48 h): 10.8

## [131I-].[Na+] [^131I, Iodine-131]
[2]
  Maximum Tolerated Activity (mCi): 426 mCi
[3]
  probability of complete reduction: 100%
  probability of durable partial RECIST response: 75%
[4]; patient 1, 13 lesions
  Teff: 8.02 days
[4]; patient 2, 18 lesions
  Teff: 4.28 days
[4]; patient 3, 14 lesions
  Teff: 0.45 days
[4]; patient 4, 12 lesions
  Teff: 3.16 days
[4]; patient 5, 10 lesions
  Teff: 1.48 days
[4]; patient 6, 16 lesions
  Teff: 1.59 days
[4]; patient 7, 23 lesions
  Teff: 2.48 days
[4]; patient 8, 6 lesions
  Teff: 4.41 days
[4]; patient 9, 8 lesions
  Teff: 3.03 days
[4]; patient 10, 4 lesions
  Teff: 1.26 days
[4]; patient 11, 11 lesions
  Teff: 2.98 days
[4]; patient 12, 3 lesions
  Teff: 3.8 days
[4]; patient 13, 13 lesions
  Teff: 1.55 days
[4]; patient 14, 5 lesions
  Teff: 1.74 days
[4]; patient 15, 17 lesions
  Teff: 3.79 days
[4]; patient 16, 6 lesions
  Teff: 4.77 days
[4]; patient 17, 6 lesions
  Teff: 8.04 days
[4]; patient 18, 12 lesions
  Teff: 1.69 days
[4]; patient 19, 17 lesions
  Teff: 1.55 days
[4]; patient 20, 13 lesions
  Teff: 1.74 days
[4]; patient 21, 10 lesions
  Teff: 4.63 days
[5]; SUV at 48 h 2
  AUC 95% PI: 1.5-9.1 uCi · hr/g per mCi
  AUC Mean Estimate: 4.0 uCi · hr/g per mCi
[5]; SUV at 48 h 4
  AUC 95% PI: 3.3-20.3 uCi · hr/g per mCi
  AUC Mean Estimate: 8.1 uCi · hr/g per mCi
[5]; SUV at 48 h 6
  AUC 95% PI: 4.8-29.2 uCi · hr/g per mCi
  AUC Mean Estimate: 12.1 uCi · hr/g per mCi
[5]; SUV at 48 h 8
  AUC 95% PI: 6.4-38.8 uCi · hr/g per mCi
  AUC Mean Estimate: 16.1 uCi · hr/g per mCi
[5]; SUV at 48 h 10
  AUC 95% PI: 8.6-48.4 uCi · hr/g per mCi
  AUC Mean Estimate: 20.2 uCi · hr/g per mCi
[5]; SUV at 48 h 15
  AUC 95% PI: 11.9-71.0 uCi · hr/g per mCi
  AUC Mean Estimate: 30.3 uCi · hr/g per mCi
[5]; SUV at 48 h 20
  AUC 95% PI: 16.1-97.1 uCi · hr/g per mCi
  AUC Mean Estimate: 40.4 uCi · hr/g per mCi
[5]; SUV at 48 h 30
  AUC 95% PI: 24.3-147.4 uCi · hr/g per mCi
  AUC Mean Estimate: 60.6 uCi · hr/g per mCi
[5]; SUV at 48 h 50
  AUC 95% PI: 40.8-252.9 uCi · hr/g per mCi
  AUC Mean Estimate: 101.2 uCi · hr/g per mCi
[5]; SUV at 48 h 100
  AUC 95% PI: 82.3-479.6 uCi · hr/g per mCi
  AUC Mean Estimate: 202.6 uCi · hr/g per mCi
[5]; SUV at 48 h 200
  AUC 95% PI: 164.2-951.2 uCi · hr/g per mCi
  AUC Mean Estimate: 405.8 uCi · hr/g per mCi
[5]; SUV at 48 h 300
  AUC 95% PI: 257.8-1476.2 uCi · hr/g per mCi
  AUC Mean Estimate: 609.2 uCi · hr/g per mCi
